Source: patent US20120270851A1, “USE OF […] THE TREATMENT OR PREVENTION OF MALARIA” (SANOFI, priority 2009, published 2012)
Read-outs that look alike come from different tables or passages of the source.

What was measured:
[1] = system: P. vivax; conditions: read-out: EC50 (effective concentration 50); blood isolates of P. vivax from patients, north-west Thailand; FIG. 1
Protocol: (§1) In Vitro Evaluation of the Efficacy of Ferroquine Versus Other Reference Antimalaria Agents, on Blood Isolates Infected with P. vivax
(§2) The test that follows is performed on 110 isolates of P. vivax, collected in the north-west of Thailand (Tak province) on consenting patients, infected with P. vivax and in the acute phase of the infection, who came for consultation at the Shoklo Malaria Research Unit (SMRU).
(§3) The samples are collected 5 hours after their arrival and placed in 5 ml heparinized tubes, at room temperature.
(§4) The platelets and leukocytes are removed from these isolates, by analogy with the method described in Kanlaya et al., Malaria Journal, 2009, 8:115.

[2] = system: P. vivax; conditions: FIG. 2
Protocol: as §1, §2, §3, §4
Russell, B. et al. 2008, Antimicrob. Agents Chemother. 52:1040-5.

For ferroquine, which EC50 [1] is on record?
The EC50 was about 6 nM.

What about the IC50 ([2]; read-out: IC50 (inhibitory concentration 50), mature trophozoite stage, mature trophozoite stage of P. vivax) of the same substance?
Its IC50 is 21 nM.

And the IC50 ([2]; read-out: IC50 (inhibitory concentration 50), ring stage, young immature trophozoites (ring stage) of P. vivax)?
Its IC50 is 14 nM.
